ChEMBL document CHEMBL4350989, “Discovery of 2,4-diarylaminopyrimidine derivatives bearing dithiocarbamate moiety as novel FAK inhibitors with antitumor and anti-angiogenesis activities” (Eur J Med Chem, 2019)
pIC50: −log10 of the molar value. Activity calls are given as the source filed them. No cut-off for these calls is given here.

Assays:
MCF7 [1] = test: Induction of apoptosis in human MCF7 cells assessed as early apoptotic cells at 0.005 uM after 24 hrs by Annexin-V and 7-AAD staining based flow cytometric analysis (reference value: 2.04%); type: functional
HCT-116 [2] = test: Antiproliferative activity against human HCT116 cells overexpressing FAK assessed as reduction in cell viability after 72 hrs by MTS assay; settings: HCT-116, 72 h
U-87 MG = test: Antiproliferative activity against human U87MG cells overexpressing FAK assessed as reduction in cell viability after 72 hrs by MTS assay
MCF7 [3] = test: Induction of apoptosis in human MCF7 cells assessed as early apoptotic cells at 0.01 uM after 24 hrs by Annexin-V and 7-AAD staining based flow cytometric analysis (reference value: 2.04%); type: functional
MCF7 [4] = test: Induction of apoptosis in human MCF7 cells assessed as necrotic cells at 0.05 uM after 24 hrs by Annexin-V and 7-AAD staining based flow cytometric analysis (reference value: 0.16%); type: functional
HCT-116 [5] = test: Induction of cell cycle arrest in human HCT116 cells assessed as increase in accumulation at G2/M phase after 24 hrs by 7-AAD staining-based flow cytometric analysis; type: functional
HCT-116 [6] = test: Induction of cell cycle arrest in human HCT116 cells assessed as accumulation at S phase at 0.05 uM after 24 hrs by 7-AAD staining-based flow cytometric analysis (reference value: 37.20%); type: functional
MCF7 [7] = test: Induction of cell cycle arrest in human MCF7 cells assessed as accumulation at G2/M phase at 0.005 uM after 24 hrs by 7-AAD staining-based flow cytometric analysis (reference value: 11.48%); type: functional
MCF7 [8] = test: Induction of cell cycle arrest in human MCF7 cells assessed as accumulation at G2/M phase at 0.05 uM after 24 hrs by 7-AAD staining-based flow cytometric analysis (reference value: 11.48%); type: functional
HCT-116 [9] = test: Induction of cell cycle arrest in human HCT116 cells assessed as accumulation at G2/M phase at 0.05 uM after 24 hrs by 7-AAD staining-based flow cytometric analysis (reference value: 12.26%); type: functional
HCT-116 [10] = test: Induction of apoptosis in human HCT116 cells assessed as necrotic cells at 0.005 uM after 24 hrs by Annexin-V and 7-AAD staining based flow cytometric analysis (reference value: 0.68%); type: functional
HCT-116 [11] = test: Induction of cell cycle arrest in human HCT116 cells assessed as accumulation at G2/M phase at 0.1 uM after 24 hrs by 7-AAD staining-based flow cytometric analysis (reference value: 12.26%); type: functional
HCT-116 [12] = test: Induction of apoptosis in human HCT116 cells assessed as late apoptotic cells at 0.005 uM after 24 hrs by Annexin-V and 7-AAD staining based flow cytometric analysis (reference value: 2.63%); type: functional
MCF7 [13] = test: Induction of apoptosis in human MCF7 cells assessed as viable cells at 0.05 uM after 24 hrs by Annexin-V and 7-AAD staining based flow cytometric analysis (reference value: 90.2%); type: functional; settings: MCF7, 24 h, read-out: Activity
MCF7 [14] = test: Induction of apoptosis in human MCF7 cells assessed as necrotic cells at 0.005 uM after 24 hrs by Annexin-V and 7-AAD staining based flow cytometric analysis (reference value: 0.16%); type: functional
HCT-116 [15] = test: Induction of apoptosis in human HCT116 cells assessed as early apoptotic cells at 0.05 uM after 24 hrs by Annexin-V and 7-AAD staining based flow cytometric analysis (reference value: 8.11%); type: functional
Homo sapiens = species: Homo sapiens; settings: 0.05 to 0.1 uM
Description: Antimigratory activity against human MCF7 cells assessed as reduction in cell migration at 0.05 to 0.1 uM incubated for 30 mins and measured after 24 hrs by crystal violet staining based inverted microscopic analysis

MCF7 [16] = test: Induction of apoptosis in human MCF7 cells assessed as late apoptotic cells at 0.005 uM after 24 hrs by Annexin-V and 7-AAD staining based flow cytometric analysis (reference value: 7.63%); type: functional
HCT-116 [17] = test: Induction of apoptosis in human HCT116 cells after 24 hrs by Annexin-V and 7-AAD staining based flow cytometric analysis; type: functional, cell-based
MCF7 [18] = test: Induction of cell cycle arrest in human MCF7 cells assessed as accumulation at S phase at 0.05 uM after 24 hrs by 7-AAD staining-based flow cytometric analysis (reference value: 26.07%); type: functional
MCF7 [19] = test: Induction of apoptosis in human MCF7 cells assessed as late apoptotic cells at 0.01 uM after 24 hrs by Annexin-V and 7-AAD staining based flow cytometric analysis (reference value: 7.63%); type: functional
HCT-116 [20] = test: Induction of cell cycle arrest in human HCT116 cells assessed as accumulation at S phase at 0.1 uM after 24 hrs by 7-AAD staining-based flow cytometric analysis (reference value: 37.20%); type: functional
HCT-116 [21] = test: Induction of cell cycle arrest in human HCT116 cells assessed as accumulation at G2/M phase at 0.005 uM after 24 hrs by 7-AAD staining-based flow cytometric analysis (reference value: 12.26%); type: functional
MCF7 [22] = test: Induction of cell cycle arrest in human MCF7 cells assessed as accumulation at S phase at 0.01 uM after 24 hrs by 7-AAD staining-based flow cytometric analysis (reference value: 26.07%); type: functional
PC-3 = test: Antiproliferative activity against human PC3 cells overexpressing FAK assessed as reduction in cell viability after 72 hrs by MTS assay; settings: PC-3, 72 h
MCF-10A = test: Cytotoxicity against human MCF10A cells assessed as reduction in cell viability after 72 hrs by MTS assay
HCT-116 [23] = test: Induction of apoptosis in human HCT116 cells assessed as late apoptotic cells at 0.1 uM after 24 hrs by Annexin-V and 7-AAD staining based flow cytometric analysis (reference value: 2.63%); type: functional
MCF7 [24] = test: Induction of apoptosis in human MCF7 cells assessed as necrotic cells at 0.01 uM after 24 hrs by Annexin-V and 7-AAD staining based flow cytometric analysis (reference value: 0.16%); type: functional
MCF7 [25] = test: Induction of apoptosis in human MCF7 cells assessed as late apoptotic cells at 0.05 uM after 24 hrs by Annexin-V and 7-AAD staining based flow cytometric analysis (reference value: 7.63%); type: functional
MCF7 [26] = test: Induction of cell cycle arrest in human MCF7 cells assessed as accumulation at G2/M phase at 0.01 uM after 24 hrs by 7-AAD staining-based flow cytometric analysis (reference value: 11.48%); type: functional
HCT-116 [27] = test: Induction of apoptosis in human HCT116 cells assessed as viable cells at 0.05 uM after 24 hrs by Annexin-V and 7-AAD staining based flow cytometric analysis (reference value: 88.6%); type: functional; settings: HCT-116, 24 h, read-out: Activity
MCF7 [28] = test: Induction of cell cycle arrest in human MCF7 cells assessed as accumulation at G0/G1 phase at 0.005 uM after 24 hrs by 7-AAD staining-based flow cytometric analysis (reference value: 62.45%); type: functional
MCF7 [29] = test: Induction of apoptosis in human MCF7 cells assessed as early apoptotic cells at 0.05 uM after 24 hrs by Annexin-V and 7-AAD staining based flow cytometric analysis (reference value: 2.04%); type: functional
MCF7 [30] = test: Induction of cell cycle arrest in human MCF7 cells assessed as accumulation at G0/G1 phase at 0.01 uM after 24 hrs by 7-AAD staining-based flow cytometric analysis (reference value: 62.45%); type: functional

Q: For `CNC(=O)c1ccccc1Nc1nc(Nc2ccc(C(=O)N3CCN(C(=S)SCCN(C)C)CC3)cc2)ncc1C(F)(F)F`, which Activity (MCF7 [1]) is on record?
A: 9.11%

Q: And the pIC50 (HCT-116 [2])?
A: 9.00

Q: What about the pIC50 (U-87 MG) of the same compound?
A: 7.22

Q: What about the Activity (MCF7 [3]) of the same compound?
A: 6.95%

Q: And the Activity (MCF7 [4])?
A: 0.56%

Q: And the Activity (HCT-116 [5])?
A: Dose-dependent effect

Q: What about the Activity (HCT-116 [6]) of the same compound?
A: 9.05%

Q: And the Activity (MCF7 [7])?
A: 36.67%

Q: What about the Activity (MCF7 [8]) of the same compound?
A: 86.08%

Q: And the Activity (HCT-116 [9])?
A: 87.56%

Q: What about the Activity (HCT-116 [10]) of the same compound?
A: 0.2%

Q: And the Activity (HCT-116 [11])?
A: 90.46%

Q: What about the Activity (HCT-116 [12]) of the same compound?
A: 1.42%

Q: What about the viability at 0.05 µM (MCF7 [13]) of the same compound?
A: 60.1%

Q: What about the Activity (MCF7 [14]) of the same compound?
A: 0.16%

Q: And the Activity (HCT-116 [15])?
A: 18.7%

Q: And the inhibition (Homo sapiens)?
A: Active

Q: What about the Activity (MCF7 [16]) of the same compound?
A: 16.5%

Q: And the Activity (HCT-116 [17])?
A: Dose-dependent effect

Q: And the Activity (MCF7 [18])?
A: 7.2%

Q: And the Activity (MCF7 [19])?
A: 21.4%

Q: And the Activity (HCT-116 [20])?
A: 4.4%

Q: And the Activity (HCT-116 [21])?
A: 18.38%

Q: What about the Activity (MCF7 [22]) of the same compound?
A: 8.75%

Q: What about the pIC50 (PC-3) of the same compound?
A: 7.52

Q: What about the pIC50 (MCF-10A) of the same compound?
A: 6.55

Q: What about the Activity (HCT-116 [23]) of the same compound?
A: 0.16%

Q: What about the Activity (MCF7 [24]) of the same compound?
A: 0.47%

Q: And the Activity (MCF7 [25])?
A: 25.7%

Q: What about the Activity (MCF7 [26]) of the same compound?
A: 81.73%

Q: And the viability at 0.05 µM (HCT-116 [27])?
A: 79.3%

Q: And the Activity (MCF7 [28])?
A: 41.93%

Q: What about the Activity (MCF7 [29]) of the same compound?
A: 13.7%

Q: And the Activity (MCF7 [30])?
A: 9.52%
